Test results published in US20250195536A1, “BICYCLOOCTANE KRAS INHIBITORS” (Incyte Corporation, priority 2023, published 2025).

Legend:
[1] = biological target: KRAS G12D (Homo sapiens, UniProt P01116, G12D); assay: GDP-GTP exchange assay (KRAS G12D); format: biochemical; details: bodipy-GDP/GppNHp exchange with SOS1; 4 h pre-incubation, 2 h reaction;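 also: one dagger IC50 up to 100 nM and two daggers above 100 nM up to 1 μM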
Procedure: (§1) The inhibitor potency of the exemplified compounds was determined in a fluorescence based guanine nucleotide exchange assay, which measures the exchange of bodipy-GDP (fluorescently labeled GDP) for GppNHp (Non-hydrolyzable GTP analog) to generate the active state of KRAS in the presence of SOS1 (guanine nucleotide exchange factor). Inhibitors were serially diluted in DMSO and a volume of 0.1 μL was transferred to the wells of a black low volume 384-well plate. 5 μL/well volume of bodipy-loaded KRAS G12D diluted to 2.5 nM in assay buffer (25 mM Hepes pH 7.5, 50 mM NaCl, 10 mM MgCl2 and 0.01% Brij-35) was added to the plate and pre-incubated with inhibitor for 4 h at r.t. Appropriate controls (enzyme with no inhibitor or with a G12D inhibitor) were included on the plate. The exchange was initiated by the addition of a 5 μL/well volume containing 1 mM GppNHp and 300 nM SOS1 in assay buffer. The 10 μL/well reaction concentration of the bodipy-loaded KRAS G12D, GppNHp, and SOS1 were 2.5 nM, 500 μM, and 150 nM, respectively. The reaction plates were incubated at r.t. for 2 h, a time estimated for complete GDP-GTP exchange in the absence of inhibitor. For the KRAS G12V mutant, similar guanine nucleotide exchange assays were used with 2.5 nM as final concentration for the bodipy loaded KRAS proteins and 3 h incubation after adding GppNHp-SOS1 mixture. A cyclic peptide described to selectively bind G12D mutant (Sakamoto et al., BBRC 484.3 (2017), 605-611) or internal compounds with confirmed binding were used as positive controls in the assay plates. Fluorescence intensities were measured on a PheraStar plate reader instrument (BMG Labtech) with excitation at 485 nm and emission at 520 nm.
(§2) Either GraphPad prism or Genedata Screener SmartFit was used to analyze the data. The IC50 values were derived by fitting the data to a four parameter logistic equation producing a sigmoidal dose-response curve with a variable Hill coefficient.
(§3) The symbol “⬆” indicates IC50 100 nM, “⬆⬆” indicates IC50 >100 nM but ≤1 μM; and “⬆⬆⬆” indicates IC50 is >1 μM but ≤5 μM, “⬆⬆⬆⬆” indicates IC50 is >5 μM but ≤10 μM. “NA” indicates IC50 not available.

[2] = biological target: KRAS G12V (Homo sapiens, UniProt P01116, G12V); assay: GDP-GTP exchange assay (KRAS G12V); format: biochemical; details: bodipy-GDP/GppNHp exchange with SOS1; 3 h incubation after GppNHp-SOS1;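 also: one dagger IC50 up to 100 nM and two daggers above 100 nM up to 1 μM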
KRAS G12V, sequence (P01116 1-188 isoform P01116-2 G12V): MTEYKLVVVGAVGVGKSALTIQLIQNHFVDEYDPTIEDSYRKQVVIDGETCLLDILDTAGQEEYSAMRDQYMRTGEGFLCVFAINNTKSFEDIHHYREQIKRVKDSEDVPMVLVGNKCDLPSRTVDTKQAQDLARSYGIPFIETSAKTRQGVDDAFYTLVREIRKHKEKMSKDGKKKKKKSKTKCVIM
Procedure: as §1, §2, §3

[3] = Caco2 assay (permeability, Papp A-B); format: in vitro ADME; details: human, Caco-2, absorptive direction (A-B), 50 μM test compound, 4% BSA in receiver
Procedure: Caco-2 cells are grown at 37° C. in an atmosphere of 5% CO2 in DMEM growth medium supplemented with 10% (v/v) fetal bovine serum, 1% (v/v) nonessential amino acids, penicillin (100 U/mL), and streptomycin (100 μg/mL). Confluent cell monolayers are subcultured every 7 days or 4 days for Caco-2 by treatment with 0.05% trypsin containing […]. Caco-2 cells are seeded in 96-well Transwell plates. The seeding density for Caco-2 cells is 14,000 cells/well. DMEM growth medium is replaced every other day after seeding. Cell monolayers are used for transport assays between 22 and 25 days for Caco-2 cells.
Cell culture medium is removed and replaced with HBSS. To measure the TEER, the HBSS is added into the donor compartment (apical side) and receiver compartment (basolateral side). The TEER is measured by using a REMS Autosampler to ensure the integrity of the cell monolayers. Caco-2 cell monolayers with TEER values 300 Ω·cm^2 are used for transport experiments. To determine the Papp in the absorptive direction (A-B), solution of test compound (50 μM) in HBSS is added to the donor compartment (apical side), while HBSS solution with 4% BSA is added to the receiver compartment (basolateral side). The apical volume was 0.075 mL, and the basolateral volume is 0.25 mL. The incubation period is 120 min. at 37° C. in an atmosphere of 5% CO2. At the end of the incubation period, samples from the donor and receiver sides are removed and an equal volume of MeCN is added for protein precipitation. The supernatants are collected after centrifugation (3000 rpm, Allegra X-14R Centrifuge from Beckman Coulter, Indianapolis, IN) for LCMS analysis. The permeability value is determined according to the equation:
Papp(cm/s)=(F*VD)/(SA*MD),
where the flux rate (F, mass/time) is calc. from the slope of cumulative amounts of compound of interest on the receiver side, SA is the surface area of the cell membrane, VD is the donor volume, and MD is the initial amount of the solution in the donor chamber.
The symbol “+” indicates a Caco-2 value of ≤0.5, “++” indicates a Caco-2 value of >0.5 but ≤1; and “+++” indicates a Caco-2 value of >1. “NA” indicates Caco-2 value not available.

KRAS G12D, sequence (P01116 1-188 isoform P01116-2 G12D): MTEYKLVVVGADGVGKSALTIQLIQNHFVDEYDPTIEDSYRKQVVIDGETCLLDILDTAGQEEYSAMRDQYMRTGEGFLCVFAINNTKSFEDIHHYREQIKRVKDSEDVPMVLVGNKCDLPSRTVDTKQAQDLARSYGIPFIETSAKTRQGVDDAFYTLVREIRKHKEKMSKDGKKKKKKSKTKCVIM

| SMILES | G12D_exchange (KRAS_G12D exchange assay IC50) [1] | G12V_exchange (KRAS_G12V exchange assay IC50) [2] | Papp A→B at 120 min, 50 μM [3] [nm/s] |
| --- | --- | --- | --- |
| Cc1nc2c(F)c(-c3cccc(Cl)c3Cl)c(CCC#N)cc2c2c1cc([C@H]1[C@H]3C[C@H](CN(c4ccnc(OCC5CC5)c4)C3)N1C(=O)C1CC1)n2[C@H]1[C@H]2CN[C@@H]1C2 (atropisomer, axis not shown; (Ra)) [Example 82, 3-((Ra)-1-((1R,4R,5S)-2-azabicyclo[2.1.1]hexan-5-yl)-2-((1S,5R,7R)-6-(cyclopropanecarbonyl)-3-(2-(cyclopropylmethoxy)pyridin-4-yl)-3,6-diazabicyclo[3.2.1]octan-7-yl)-7-(2,3-dichlorophenyl)-6-fluoro-4-methyl-1H-pyrrolo[3,2-c]quinolin-8-yl)propanenitrile] | † | † | – |
| Cc1nc2c(F)c(-c3cccc(Cl)c3Cl)c(CCC#N)cc2c2c1cc([C@H]1[C@H]3C[C@H](CN(c4ncc(C)n4C)C3)N1C(=O)C1CC1)n2[C@H]1[C@H]2CN[C@@H]1C2 (atropisomer, axis not shown; (Ra)) [Example 101, 3-((Ra)-1-((1R,4R,5S)-2-azabicyclo[2.1.1]hexan-5-yl)-2-((1S,5R,7R)-6-(cyclopropanecarbonyl)-3-(1,5-dimethyl-1H-imidazol-2-yl)-3,6-diazabicyclo[3.2.1]octan-7-yl)-7-(2,3-dichlorophenyl)-6-fluoro-4-methyl-1H-pyrrolo[3,2-c]quinolin-8-yl)propanenitrile] | † | † | – |
| Cc1nc2c(F)c(-c3cccc(Cl)c3Cl)c(CCC#N)cc2c2c1cc([C@H]1[C@H]3C[C@H](CN(c4ncc(C(F)F)s4)C3)N1C(=O)C1CC1)n2[C@H]1[C@H]2CN[C@@H]1C2 (atropisomer, axis not shown; (Ra)) [Example 102, 3-((Ra)-1-((1R,4R,5S)-2-azabicyclo[2.1.1]hexan-5-yl)-2-((1S,5R,7R)-6-(cyclopropanecarbonyl)-3-(5-(difluoromethyl)thiazol-2-yl)-3,6-diazabicyclo[3.2.1]octan-7-yl)-7-(2,3-dichlorophenyl)-6-fluoro-4-methyl-1H-pyrrolo[3,2-c]quinolin-8-yl)propanenitrile] | † | † | – |
| Cc1nc2c(F)c(-c3cccc(Cl)c3Cl)c(CCC#N)cc2c2c1cc([C@H]1[C@H]3C[C@H](CN(C(=O)NCC(F)(F)F)C3)N1C(=O)C1CC1)n2[C@H]1[C@H]2CN[C@@H]1C2 (atropisomer, axis not shown; (Ra)) [Example 109, (1 S,5R,7R)-7-((Ra)-1-((1R,4R,5S)-2-Azabicyclo[2.1.1]hexan-5-yl)-8-(2-cyanoethyl)-7-(2,3-dichlorophenyl)-6-fluoro-4-methyl-1H-pyrrolo[3,2-c]quinolin-2-yl)-6-(cyclopropanecarbonyl)-N-(2,2,2-trifluoroethyl)-3,6-diazabicyclo[3.2.1]octane-3-carboxamide] | † | † | – |
| Cc1nc2c(F)c(-c3cccc(Cl)c3Cl)c(CCC#N)cc2c2c1cc(C1C3CC(CN(C4CCCCC4)C3)N1C(=O)C1CC1)n2C1C2CNC1C2 (atropisomer, axis not shown; (Ra)) [Example 114, 3-((Ra)-1-((1R,4R,5S)-2-Azabicyclo[2.1.1]hexan-5-yl)-2-((1R,5R,7R)-3-cyclohexyl-6-(cyclopropanecarbonyl)-3,6-diazabicyclo[3.2.1]octan-7-yl)-7-(2,3-dichlorophenyl)-6-fluoro-4-methyl-1H-pyrrolo[3,2-c]quinolin-8-yl)propanenitrile] | † | † | – |
| Cc1nc2c(F)c(-c3cccc(Cl)c3Cl)c(CCC#N)cc2c2c1cc([C@H]1[C@H]3C[C@H](CN(c4ccc(C(F)(F)F)cc4)C3=O)N1C(=O)C1CC1)n2[C@H]1[C@H]2CN[C@@H]1C2 (atropisomer, axis not shown; (Ra)) [Example 120a, 3-((Ra)-1-((1R,4R,5S)-2-Azabicyclo[2.1.1]hexan-5-yl)-2-((1R,5R,7R)-6-(cyclopropanecarbonyl)-2-oxo-3-(4-(trifluoromethyl)phenyl)-3,6-diazabicyclo[3.2.1]octan-7-yl)-7-(2,3-dichlorophenyl)-6-fluoro-4-methyl-1H-pyrrolo[3,2-c]quinolin-8-yl)propanenitrile] | †† | † | – |
| Cc1nc2c(F)c(-c3cccc(Cl)c3Cl)c(CCC#N)cc2c2c1cc([C@H]1[C@H]3C[C@H](C(=O)N(c4ccc(C(F)(F)F)cc4)C3)N1C(=O)C1CC1)n2[C@H]1[C@H]2CN[C@@H]1C2 (atropisomer, axis not shown; (Ra)) [Example 120b, 3-((Ra)-1-((1R,4R,5S)-2-Azabicyclo[2.1.1]hexan-5-yl)-2-((1S,5R,7R)-6-(cyclopropanecarbonyl)-4-oxo-3-(4-(trifluoromethyl)phenyl)-3,6-diazabicyclo[3.2.1]octan-7-yl)-7-(2,3-dichlorophenyl)-6-fluoro-4-methyl-1H-pyrrolo[3,2-c]quinolin-8-yl)propanenitrile] | † | † | – |
| [2H]C1([2H])[C@@H]2C[C@H](CN1c1ncc(C(C)C)s1)N(C(=O)C1CC1)[C@H]2c1cc2c(C)nc3c(F)c(-c4cccc(Cl)c4Cl)c(CCC#N)cc3c2n1[C@H]1[C@H]2CN[C@@H]1C2 (atropisomer, axis not shown; (Ra)) [Example 123, 3-((Ra)-1-((1R,4R,5S)-2-Azabicyclo[2.1.1]hexan-5-yl)-2-((1 S,5R,7R)-6-(cyclopropanecarbonyl)-3-(5-isopropylthiazol-2-yl)-3,6-diazabicyclo[3.2.1]octan-7-yl-2,2-d2)-7-(2,3-dichlorophenyl)-6-fluoro-4-methyl-1H-pyrrolo[3,2-c]quinolin-8-yl)propanenitrile] | †† | † | – |
| COC(=O)N1[C@@H]2C[C@@H](CN(c3nccnc3OC)C2)[C@@H]1c1cc2c(C)nc3c(F)c(-c4cccc(Cl)c4Cl)c(CCC#N)cc3c2n1[C@H]1[C@H]2CN[C@@H]1C2 (atropisomer, axis not shown; (Ra)) [Example 125, Methyl (1 S,5R,7R)-7-((Ra)-1-((1R,4R,5S)-2-azabicyclo[2.1.1]hexan-5-yl)-8-(2-cyanoethyl)-7-(2,3-dichlorophenyl)-6-fluoro-4-methyl-1H-pyrrolo[3,2-c]quinolin-2-yl)-3-(3-methoxypyrazin-2-yl)-3,6-diazabicyclo[3.2.1]octane-6-carboxylate] | – | † | > 10 |
